Where two headings read alike, the source gives them in different places.
Tests used:
Format in all cases: in vivo
[1] = test system: Plutella xylostella; assay: Test Example 2: cabbage root immersion (systemic), dead pest rate of Plutella xylostella larvae; conditions: for pest or weed control at 5 ppm / pest or weed control at 1 ppm / pest or weed control at 25 ppm: Plutella xylostella, 120 h; for pest or weed control at 5 ppm: read-out: dead pest rate; for pest or weed control at 1 ppm: test concentration of 1 ppm
Method: In 0.25 mL of a mixture solution of Sorgen TW-20 (manufactured by Daiichi Industries Pharmaceuticals, Co., Ltd.) and acetone (mixture volume ratio; Sorgen TW-20:acetone=1:19), 2.5 mg of the present compound (1), (2), (3), (4), (7), (10), (11), (12), (16), (18), (19), (20), (21), (22), (25), (30), (36), (37), (41), (42), (52), (54), (56), (57), (60), (62), (105) or (109) was dissolved. The solution was diluted with ion-exchanged water so that the active ingredient concentration became to a predetermined concentration to prepare a pesticidal solution for test of the test compound. The root part of cabbages in the fourth leaf period were washed with tap water to remove soils, and then immersed in the pesticidal solution for test. After 5 days from immersion of the root part, the root part was removed, and the leaves and stems were put in a cup (volume; 180 mL). In the cup 10 second-instar larvae of Plutella xylostella were released, and the cup was stored at 24° C. After 5 days, the number of dead pests was counted, and the dead pest rate was calculated by the following equation:
(§1) Dead pest rate(%)=(the number of dead pests/the number of tested pests)×100
The test concentrations of the other present compounds were 25 ppm.

[2] = test system: Frankliniella occidentalis; assay: Test Example 4: spray on cucumber, control value against Frankliniella occidentalis larvae; conditions: 168 h, spray 20 ml/cup on cucumber, 30 larvae, seven days after spraying; for pest or weed control at 50 ppm: test concentration 50 ppm; for pest or weed control at 12.5 ppm: test concentration 12.5 ppm
Method: The obtained preparation was diluted with water so that the active ingredient concentration became to a predetermined concentration to prepare a spray solution for test. […] were planted in polyethylene cups, and were grown until the first true leaf was developed. The spray solution for test prepared above was sprayed at the rate of 20 ml/cup on the cucumber. After the pesticidal solution sprayed onto the cucumber was dried, the first true leaf was cut off and then placed on a filter paper (diameter: 70 mm) containing water in a polyethylene cup (diameter: 110 mm). On the cucumber leaf, 30 larvae of Frankliniella occidentalis were released, and the polyethylene cup was capped. Seven days after spraying, the number of pests surviving on the cucumber leaf was counted, and a control value was calculated by the following equation: Control value(%)={1−(Cb×Tai)/(Cai×Tb)}×100 wherein, each symbol has following meaning: Cb: the number of pests before treatment in a non-treated area Cai: the number of pests at the time of observation in a non-treated area Tb: the number of pests before treatment in a treated-area Tai: the number of pests at the time of observation in a treated-area. […] The test concentrations of the other present compounds were 50 ppm.

[3] = test system: Spondoptela litura; assay: Test Example 3: treated artificial diet (Insecta LF), dead pest rate of Spondoptela litura larvae; conditions: 144 h, 2 mL on Insecta LF diet, 5 fourth-instar larvae, after 6 days
Description: Ten parts of the present compound (1) to (5), (7) to (13), (18) to (33), (35) to (49), (52) to (56), (58) to (61), (71), (73) to (77), (79), (80), (82), (83), (93), (94), (95), (96), (97), (100) to (109), (111), (112), (115), (117), (119), (121), or (123) to (133), 35 parts of white carbon containing 50 parts of polyoxyethylene alkyl ether sulfate ammonium salt, and 55 parts of water were mixed, and finely ground by a wet grinding method to obtain a preparation. The obtained preparation was diluted with water so that the active ingredient concentration became to 500 ppm to prepare a pesticidal solution for test. On the bottom of a polyethylene cup having a diameter of 5.5 cm, a filter paper having a diameter of 5.5 cm was placed, on which Insecta LF (Nippon Agriculture Industries, Co., Ltd.) sliced in a thickness of 6 mm and further cut half was laid, and to which 2 mL of the above-described pesticidal solution for test was added. After air-dried, 5 fourth-instar larvae of Spondoptela litura were released in the cup, and the cup was capped. After 6 days, the number of dead pests was counted, and the dead pest rate was calculated by the following equation:
as §1

[4] = test concentration of 5 ppm, root immersion 5 days, 10 second-instar larvae, after 5 days at 24° C.
[5] = root immersion 5 days, 10 second-instar larvae, after 5 days at 24° C.
[6] = test concentration 25 ppm, root immersion 5 days, 10 second-instar larvae, after 5 days at 24° C.

CN(C(=O)NC(=O)c1c(F)cccc1F)c1ccc(SC(F)(F)C(F)(F)F)cc1F [(30)]
pest or weed control at 5 ppm [1, 4]: 100%
pest or weed control at 50 ppm [2]: 100%

CSc1ccc(N(C)C(=O)NC(=O)c2c(F)cccc2F)c(C(F)(F)F)c1 [(121)]
pest or weed control at 500 ppm [3]: 100%

CN(C(=O)c1c(F)cccc1F)C(=O)N(C)c1ccc(SC(F)(F)C(F)OC(F)(F)F)cc1F (centres unmarked) [(110)]
pest or weed control at 50 ppm [2]: 100%

CN(C(=O)NC(=O)c1c(F)cccc1F)c1ccc(SC(F)(F)C(F)(F)F)cc1Cl [(107)]
pest or weed control at 50 ppm [2]: 100%

CN(C(=O)c1c(F)cccc1F)C(=O)N(C)c1ccc(SC(F)(F)F)cc1Cl [(104)]
pest or weed control at 50 ppm [2]: 100%

CN(C(=O)c1c(F)cccc1F)C(=O)N(C)c1ccc(S(=O)(=O)C(F)(F)F)cc1F [(21)]
pest or weed control at 1 ppm [1, 5]: 100%

CCN(C(=O)N(C)C(=O)c1c(F)cccc1F)c1ccc(SC(F)(F)F)cc1F [(41)]
pest or weed control at 25 ppm [1, 6]: 100%
pest or weed control at 50 ppm [2]: 100%

CN(C(=O)c1c(F)cccc1F)C(=O)N(C)c1ccc(S(=O)(=O)C(F)(F)C(F)F)cc1F [(40)]
pest or weed control at 12.5 ppm [2]: 100%

CC(=O)N(C(=O)c1c(F)cccc1F)C(=O)N(C)c1ccc(SC(F)(F)F)cc1F [(52)]
pest or weed control at 5 ppm [1, 4]: 100%

CN(C(=O)NC(=O)c1c(Cl)cccc1Cl)c1ccc(SC(F)(F)F)cc1F [(95)]
pest or weed control at 500 ppm [3]: 100%

CN(C(=O)c1c(F)cccc1F)C(=O)N(C)c1ccc(SC(F)(F)F)cc1 [(117)]
pest or weed control at 500 ppm [3]: 100%
pest or weed control at 50 ppm [2]: 100%

C#CCN(C(=O)c1c(F)cccc1F)C(=O)N(C)c1ccc(SC(F)(F)F)cc1F [(60)]
pest or weed control at 25 ppm [1, 6]: 100%

CN(C(=O)NC(=O)c1c(F)cccc1F)c1ccc(S(=O)(=O)C(F)(F)C(F)F)cc1F [(25)]
pest or weed control at 5 ppm [1, 4]: 100%
pest or weed control at 12.5 ppm [2]: 100%

CN(C(=O)c1c(Cl)cccc1Cl)C(=O)N(C)c1ccc(SC(F)(F)F)cc1F [(96)]
pest or weed control at 500 ppm [3]: 100%

CN(C(=O)N(Cc1ccccn1)C(=O)c1c(F)cccc1F)c1ccc(SC(F)(F)F)cc1F [(76)]
pest or weed control at 50 ppm [2]: 100%

CN(C(=O)c1c(F)cccc1F)C(=O)N(C)c1ccc([S+]([O-])C(F)(F)F)cc1F (centres unmarked) [(19)]
pest or weed control at 1 ppm [1, 5]: 100%

CN(C(=O)NC(=O)c1c(F)cccc1F)c1ccc([S+]([O-])C(F)(F)F)cc1F (centres unmarked) [(18)]
pest or weed control at 1 ppm [1, 5]: 100%

CN(C(=O)NC(=O)c1c(F)cccc1F)c1ccc(SC(F)(F)C(F)(F)C(F)(F)F)cc1F [(28)]
pest or weed control at 50 ppm [2]: 100%

COc1cccc(CN(C(=O)c2c(F)cccc2F)C(=O)N(C)c2ccc(SC(F)(F)F)cc2F)c1 [(119)]
pest or weed control at 500 ppm [3]: 100%

CN(C(=O)N(CCN1CCOCC1)C(=O)c1c(F)cccc1F)c1ccc(SC(F)(F)F)cc1F [(80)]
pest or weed control at 500 ppm [3]: 100%

CSCCN(C(=O)c1c(F)cccc1F)C(=O)N(C)c1ccc(SC(F)(F)F)cc1F [(73)]
pest or weed control at 50 ppm [2]: 100%

CN(C(=O)N(C(=O)c1c(F)cccc1F)C1CC1)c1ccc(SC(F)(F)F)cc1F [(69)]
pest or weed control at 50 ppm [2]: 100%

CCSc1ccc(N(C)C(=O)N(C)C(=O)c2c(F)cccc2F)c(F)c1 [(16)]
pest or weed control at 25 ppm [1, 6]: 100%

COCN(C(=O)c1c(F)cccc1F)C(=O)N(C)c1ccc(SC(F)(F)F)cc1F [(11)]
pest or weed control at 25 ppm [1, 6]: 100%

CN(C(=O)NC(=O)c1c(F)cccc1F)c1ccc([S+]([O-])C(F)(F)C(F)F)cc1F (centres unmarked) [(24)]
pest or weed control at 12.5 ppm [2]: 100%

CN(C(=O)c1c(F)cccc1F)C(=O)N(C)c1ccc(SC(F)(F)C(F)C(F)(F)F)cc1F (centres unmarked) [(47)]
pest or weed control at 50 ppm [2]: 100%

CN(C(=O)c1c(F)cccc1Cl)C(=O)N(C)c1ccc(SC(F)(F)C(F)(F)C(F)(F)F)cc1F [(45)]
pest or weed control at 50 ppm [2]: 100%

Cc1cc(SC(F)(F)F)ccc1N(C)C(=O)N(C)C(=O)c1c(F)cccc1F [(42)]
pest or weed control at 25 ppm [1, 6]: 100%

CN(C(=O)NC(=O)c1c(F)cccc1F)c1ccc(SC(F)(F)F)cc1 [(7)]
pest or weed control at 5 ppm [1, 4]: 100%
pest or weed control at 12.5 ppm [2]: 100%

CN(C(=O)c1c(F)cccc1F)C(=O)N(C)c1ccc(SC(F)(F)C(F)(F)C(F)(F)F)cc1F [(22)]
pest or weed control at 5 ppm [1]: 100%
pest or weed control at 3.2 ppm ([2]; test concentration 3.2 ppm): 100%

CN(C(=O)NC(=O)c1c(F)cccc1Cl)c1ccc(SC(F)(F)C(F)(F)C(F)(F)F)cc1F [(29)]
pest or weed control at 50 ppm [2]: 100%

CN(C(=O)c1c(F)cccc1F)C(=O)N(C)c1ccc(SC(F)(F)C(F)(F)F)cc1Cl [(108)]
pest or weed control at 50 ppm [2]: 100%

CN(C(=O)N(C(=O)c1c(F)cccc1F)S(C)(=O)=O)c1ccc(SC(F)(F)F)cc1F [(54)]
pest or weed control at 25 ppm [1, 6]: 100%

CN(C(=O)NC(=O)c1c(F)cccc1F)c1ccc(SC(F)(F)C(F)OC(F)(F)F)cc1F (centres unmarked) [(109)]
pest or weed control at 25 ppm [1, 6]: 100%
pest or weed control at 50 ppm [2]: 100%

CN(C(=O)NC(=O)c1c(F)cccc1F)c1ccc(SC(F)F)cc1F [(57)]
pest or weed control at 5 ppm [1, 4]: 100%

Cc1cc(SC(F)(F)C(F)(F)F)ccc1N(C)C(=O)NC(=O)c1c(F)cccc1F [(105)]
pest or weed control at 25 ppm [1, 6]: 100%
pest or weed control at 50 ppm [2]: 100%

Cc1cc(SC(F)(F)F)ccc1N(C)C(=O)NC(=O)c1c(F)cccc1F [(36)]
pest or weed control at 5 ppm [1, 4]: 100%
pest or weed control at 12.5 ppm [2]: 100%

CN(C(=O)NC(=O)c1c(F)cccc1F)c1ccc(SC(F)F)cc1Cl [(34)]
pest or weed control at 50 ppm [2]: 100%

Cc1c(SC(F)(F)C(F)(F)F)ccc(N(C)C(=O)N(C)C(=O)c2c(F)cccc2F)c1C [(49)]
pest or weed control at 50 ppm [2]: 100%

Cc1cc(SC(F)(F)C(F)F)ccc1N(C)C(=O)N(C)C(=O)c1c(F)cccc1F [(131)]
pest or weed control at 50 ppm [2]: 100%

CN(C(=O)NC(=O)c1c(F)cccc1Cl)c1ccc(SC(F)(F)C(F)F)cc1F [(23)]
pest or weed control at 12.5 ppm [2]: 100%

CN(C(=O)NC(=O)c1c(F)cccc1F)c1ccc(C(=O)OC(C)(C)C)cc1F [(37)]
dead pest rate [1, 6]: 100%

CCN(C(=O)c1c(F)cccc1F)C(=O)N(C)c1ccc(SC(F)(F)F)cc1F [(56)]
pest or weed control at 25 ppm [1, 6]: 100%
pest or weed control at 50 ppm [2]: 100%

Cc1cc(SC(F)(F)C(F)(F)F)ccc1N(C)C(=O)N(C)C(=O)c1c(F)cccc1F [(106)]
pest or weed control at 50 ppm [2]: 100%

CN(C(=O)NC(=O)c1c(F)cccc1F)c1ccc(SC(F)(F)C(F)C(F)(F)F)cc1F (centres unmarked) [(31)]
pest or weed control at 50 ppm [2]: 100%

CN(C(=O)N(C(=O)c1c(F)cccc1F)N1CCOCC1)c1ccc(SC(F)(F)F)cc1F [(79)]
pest or weed control at 500 ppm [3]: 100%

From US20090176786A1, “Benzoylurea Compounds and Use Thereof” (priority 2005, published 2009)
